According to patent EP0075436B1, “Substituted 4,5-dihydro-6-(substituted)-phenyl-3(2H)-pyridazinones and 6-(substituted)phenyl-3(2H)-pyridazinones” (WARNER-LAMBERT COMPANY, priority 1981, dated 1983):

Tests used:
[1] = test system: pentobarbital-anesthetized dog; assay: Test for in vivo myocardial inotropic activity in anesthetized dog; conditions: intravenous; for % Change Blood Pressure: aortic blood pressure; for % Change Myocardial Contractility: dP/dt of left ventricular blood pressure
Procedure: Test for in vivo myocardial inotropic activity in anesthetized dog This screen consists of determining the effects of increasing intravenous doses of compound on myocardial contractility (dP/dt mad of left ventricular blood pressure), heart rate and aortic blood pressure of the pentobarbital-anesthetized dog. Adult mongrel dogs of either sex are anesthetized with pentobarbital, 35 mg/kg, IV, and are subsequently maintained under anesthesia with a continuous infusion of pentabarbital, 3.5 mg/kg/hour. The trachea is intubated but the animals are permitted to breathe spontaneously. A cannula is inserted into the femoral vein for administrating test agents. A Millar catheter tip pressure transducer or a fluid filled catheter is inserted into the ascending aorta via the femoral artery for measuring aortic blood pressure. A Millar catheter tip pressure transducer is passed into the left ventricle via the left carotid artery for measuring left ventricular blood pressure. Needle electrodes are.placed subcutaneously for recording a lead II electrocardiogram (ECG). Left ventricular and aortic blood pressures are recorded on a strip chart recorder. Heart rate, using a . biotachometer triggered from the R wave of the ECG, and the first derivative of left ventricular blood pressure (dP/dt), obtained with a differentiator amplifier coupled to the corresponding pressure amplifier, are also recorded. A period of at least 30 minutes is utilized to obtain control data prior to administration of test compound. Depending on solubility, the compounds are dissolved in 0.9% saline solution or in dilute HCI or NaOH (0.1 or 1.0 N) and are diluted to volume with normal saline. Ethanol or dimethylacetamide can be used as solvents if adequate dilutions can be made. Appropriate vehicle controls are administered when needed. Each dose of the test compound is administered in volume of 0.1 ml/kg over a period of one minute.

[2] = test system: conscious rat; assay: Direct monitoring of aortic blood pressure and heart rate from conscious rats; type: in vivo; conditions: doses 1, 3, 10, and 30 mg/kg
Source text: A method for the direct monitoring of aortic blood pressure and heart rate from conscious rats
The continuous monitoring of pulsatile blood pressure from unrestrained conscious rats surgically equipped with polyethylene cannulas was accomplished by means of a computer assisted data capture scheme (CADCS). The basic elements of the methodology are the cannulation procedure and the CADCS. Method
Cannulation Procedure: Rats were anesthetized with Telazol (1:1 tiletamine HCI and zolazepam HCI; WU PD, Ann Arbor, MI) 20-40 mg/kg IM and the descending aorta exposed via a midline incision. Cannulus fabricated from polyethylene tubing (Clay Adams, Parsippany, NJ) were inserted into the aorta via an undersized puncture hole below the renal arteries. The puncture hole was made by a 23 G disposable needle with a section of the aorta clamped off above and below the puncture site. The cannulas, consisting of a PE100 (0.86 mm ID) body and a PE50 (0.58 mm ID) tip, were attached to a trocar, inserted through the psoas muscle, and passed subcutaneously along the midline of the back and externalized between the ears. The cannulas were anchored to the psoas muscle and between the scapulae (3-0 green braided suture; Deknatel, Queens Village, NY). The midline incision was closed in two steps (muscle first, skin second) using continuous over-and-over sutures (4-0 chronic; Ethicon, Somerville, NJ). Each rat was then given penicillin 30,000 units subcutaneously (Penicillin G Procaine Sterile Suspension; Parke-Davis, Detroit, MI).
The rats were fitted with a harness-spring-swivel assembly designed to protect the cannula and to provide the rat relative freedom of movement. The harnesses were fabricated from nylon hook and loop tape (Velcro, Manchester, NH) cemented to a metal plate to which spring wires (18-8 stainless steel, Paragon Spring; Chicago, IL) were attached to brass swivels (BRS/LVE, Bellville: MD). Each polyethylene cannula was channeled through a spring and connected through a swivel to a pressure transducer (Model P23Gb; Statham Instruments; Hato Rey, Puerto Rico) and an infusion pump (Sage model 234-7; Orion Research, Cambridge, MA) by means of PE100 tubing. While on test, each rat received a continuous slow infusion of heparinized saline solution […] or 40 units of heparin per 24-hour period) to prevent clot formation. Additional "flushes" of the cannula with heparinized saline were carriedd out when the aortic pulse pressure (systolic minus diastolic) was less than 25 mm Hg.
CADCS: The pulsatile blood pressure and heart rate of each of 32 rats was monitored every minute by means of two in-laboratory microcomputers communicating directly with a data concentrator computer. The data were first stored on the data concentrator disk and then transferred to a magnetic tape for analysis and report generation by the main research computer (Varian V-74 or IBM). The overall scheme involved modulating the primary signal from the pressure transducer, generating the primary data set of the one- minute values for systolic, diastolic, and mean blood pressures and heart rate by the in-lab microcomputer and the storage, analysis, and report generation by the main research computer.
The transducers were connected to analog signal conditioning modules. The modules provided a regulated excitation voltage for the transducers, amplification as required to interface the microprocessors and an active low pass filter to compensate for the pressure wave form distortion produced by the flexible, fluid filled, narrow lumened cannula. The distortion was 22-26 Hz and thus provided a reliable estimate of both systolic and diastolic blood pressure.
The microcomputers (one for each of two groups of 16 rats) were connected to the input components through the module interface units, an analog-to-digital converter for the pressure wave form signal and the digital inputs for the dose and event marker switches. […]

Row | Structure (SMILES) | % Change Heart Rate ([1]; dose 0.01 mg/kg) | % Change Blood Pressure ([1]; dose 0.01 mg/kg) | % Change Myocardial Contractility ([1]; dose 0.01 mg/kg) | % Change Heart Rate ([1]; dose 0.03 mg/kg) | % Change Blood Pressure ([1]; dose 0.03 mg/kg) | % Change Myocardial Contractility ([1]; dose 0.03 mg/kg) | % Change Heart Rate ([1]; dose 0.10 mg/kg) | % Change Blood Pressure ([1]; dose 0.10 mg/kg) | % Change Myocardial Contractility ([1]; dose 0.10 mg/kg) | % Change Heart Rate ([1]; dose 0.31 mg/kg) | % Change Blood Pressure ([1]; dose 0.31 mg/kg) | % Change Myocardial Contractility ([1]; dose 0.31 mg/kg) | aortic blood pressure [2] | other results
1 | O=C1CCC(c2ccc(-n3ccnc3)cc2)=NN1 [Example 3a, 4,5-Dihydro-6-[4-(1H imidazol-1-yl)phenyl]-3(2H)-pyridazinone] | −4.0% | −2.0% | 9% | −4.0% | −6.0% | 32% | −1.0% | −10.5% | 57% | 2.0% | −21.5% | 87% | – | –
2 | O=C1CCC(c2cccc(-n3ccnc3)c2)=NN1 [Example 6, 4,5-Dihydro-6-[3-(1-imidazol-1-yl)phenyl]-3(2H)-pyridazinone] | −2.0% | 1.0% | 6% | – | – | – | −1.0% | −1.0% | 36% | – | – | – | significant reduction | % Change Heart Rate ([1]; dose 0.30 mg/kg): 2.0%; % Change Blood Pressure ([1]; dose 0.30 mg/kg): −8.0%; % Change Myocardial Contractility ([1]; dose 0.30 mg/kg): 71%; % Change Heart Rate ([1]; dose 1.0 mg/kg): 11.0%; % Change Blood Pressure ([1]; dose 1.0 mg/kg): −20.0%; % Change Myocardial Contractility ([1]; dose 1.0 mg/kg): 114%
3 | O=C1CCC(c2ccc(-n3cnc4c3CCCC4)cc2)=NN1 [Example 8, 4,5-Dihydro-6-[4-(4,5,6,7-tetrahydro-1H-benzimidazol-1-yl)phenyl]-3(2H)-pyridazinone] | −3.0% | −2.5% | 10% | −15.0% | −7.0% | 21% | −17.0% | −11.0% | 51% | −18.0% | −17.0% | 95% | significant reduction | % Change Heart Rate ([1]; dose 1.0 mg/kg): −7.0%; % Change Blood Pressure ([1]; dose 1.0 mg/kg): −27.0%; % Change Myocardial Contractility ([1]; dose 1.0 mg/kg): 127%
4 | O=C1CCC(c2ccc(-n3cnnc3)cc2)=NN1 [Example 10] | – | – | – | – | – | – | – | – | – | – | – | – | significant reduction | –
5 | O=C1CCC(c2ccc(-n3cccc3)cc2)=NN1 [Example 11, 4,5-Dihydro-6-[4-(H-pyrrol-1-yl)phenyl]-3(2H)-pyridazinone] | – | – | – | – | – | – | – | – | – | – | – | – | significant reduction | –
6 | O=C1CCC(c2ccc(OCCn3ccnc3)cc2)=NN1 [Example 12, 4,5-Dihydro-6-[4-[2-(1H-imidazol-1-yl)ethoxy]phenyl]-3(2H)-pyridazinone] | – | – | – | – | – | – | – | – | – | – | – | – | significant reduction | –
7 | O=c1ccc(-c2ccc(-n3ccnc3)cc2)n[nH]1 [Example 13a, 6-[4-(1H-Imidazol-1-yl)phenyl]-3(2H)-pyridazinone] | 0.0% | 0.0% | 3% | 6.0% | −1.5% | 15% | 16.0% | −6.0% | 40% | 32.0% | −9.0% | 78% | – | –
8 | O=c1ccc(-c2cccc(-n3ccnc3)c2)n[nH]1 [Example 14, 6-[3-(1H-Imidazol-1-yl)phenyl]-3(2H)-pyridazinone] | – | – | – | – | – | – | – | – | – | – | – | – | significant reduction | –
9 | O=c1ccc(-c2ccc(-n3cnc4c3CCCC4)cc2)n[nH]1 [Example 15, 6-[4-(4,5,6,7-Tetrahydro-1H benzimidazol-1-yl)phenyl]-3(2H)-pyridazinone] | – | – | – | – | – | – | – | – | – | – | – | – | significant reduction | –
10 | O=c1ccc(-c2ccc(OCCn3ccnc3)cc2)n[nH]1 [Example 16, 6-[4-[2-(1H Imidazol-1-yl)ethoxy]phenyl]-3(2H)-pyridazinone] | – | – | – | – | – | – | – | – | – | – | – | – | significant reduction | –
